Data as given in US9688637B2, “3-amidobenzamides and uses thereof for increasing cellular levels of A3G and other A3 family members” (Northwestern University, priority 2014, dated 2017).

How the values were obtained:
A3G-Luc = A3G-Luc luciferase screen in 293T cells stably expressing A3G-Luc; assay type: cell-based, human; conditions: 10 μM, 48 hrs, DMSO = 100%
Excerpt: This background led to construction of cell lines to use in a search for compounds that might boost levels of A3s in the HIV target cells of the majority of HIV-infected persons who are non-controllers. The goal is to test a strategy of using such a booster in acute/early infection to prevent the hypothesized decrease of A3G and related A3s in an effort to increase “control” in persons lacking HLA B57/27-associated control. […] 293T and TZM-bl cells were maintained in DMEM (containing 4.5 g/liter glucose, L-glutamine, and sodium pyruvate) medium plus 10% fetal bovine serum, 50 IU/ml penicillin, and 50 μg/ml streptomycin at 37° C. and 5% CO2 throughout the experiments. […]. After collecting viral supernatant, 293T cells were infected with viral particles harboring the A3G-Luc expressing vector and selected with puromycin (0.75 μg/ml) for three days. Ten single cell clones of stable cells were isolated and tested for expression of A3G-Luc protein by both immunoblotting using antibody against A3G and measuring luciferase activity. Expressions in cell lines used for subsequent experiments are depicted in FIG. 2, upper panel. The A3G-Luc fusion protein was sensitive to Vif-mediated degradation (FIG. 3). Similar cells lines stably expressing A3F were constructed with the same methods (not shown).
To screen compounds that can boost A3G levels, 293T cells (25,000 cells per well in 96-well plate) stably expressing A3G-Luc protein or A3G-Luc/Vif proteins were plated. […] After 48 hrs of incubation with compounds culture medium was removed from each well and replaced with 100 μl of Britelite Plus luciferase assay substrate (PerkinElmer). Following 5 min. of incubation at room temperature, 75 μl of each cell lysate was transferred to a 96-well OptiPlate 96 (PerkinElmer) and luminescence was measured in a VICTOR X2 Multilabel Reader (PerkinElmer). Relative activity of compounds for their boosting capability A3G-Luc activity was calculated by plotting DMSO-treated A3G-Luc or A3G-Luc/Vif cells as 100%. Cellular cytotoxicity was measured by counting number of cells after 48 hrs of incubation with compounds compared to DMSO treated cells.

A3G-Luc/Vif = A3G-Luc/Vif luciferase screen in 293T cells stably co-expressing A3G-Luc and HIV-1 Vif; assay type: cell-based, human; conditions: 10 μM, 48 hrs, DMSO = 100%
Method: FIG. 6. 293T cell clone #6 stably co-expressing A3G-Luciferase fusion protein together with HIV-1 Vif was used. Small molecule compounds were tested for their effects on stability of A3G and inhibition of Vif activity against A3G by measuring luciferase activity, relative to treatment with control DMSO only. The relative % luciferase activity was higher after treatment with NU compounds than DMSO.
[…]. After sorting, expression of both A3G-Luc and Vif was confirmed by immunoblotting using antibody against both A3G and Vif.
To screen compounds that can boost A3G levels, 293T cells (25,000 cells per well in 96-well plate) stably expressing A3G-Luc protein or A3G-Luc/Vif proteins were plated. After 24 hrs post plating culture medium was replaced with 100 μl of new medium containing either DMSO as a control or various compounds (10 μM concentration). After 48 hrs of incubation with compounds culture medium was removed from each well and replaced with 100 μl of Britelite Plus luciferase assay substrate (PerkinElmer). Following 5 min. of incubation at room temperature, 75 μl of each cell lysate was transferred to a 96-well OptiPlate 96 (PerkinElmer) and luminescence was measured in a VICTOR X2 Multilabel Reader (PerkinElmer). Relative activity of compounds for their boosting capability A3G-Luc activity was calculated by plotting DMSO-treated A3G-Luc or A3G-Luc/Vif cells as 100%. Cellular cytotoxicity was measured by counting number of cells after 48 hrs of incubation with compounds compared to DMSO treated cells.

Structure (SMILES)	A3G-Luc Activity (% of Relative Light Units compared to DMSO treated control) (A3G-Luc)	Vif-A3G-Luc Activity (% of RLUs compared to DMSO treated control) (A3G-Luc/Vif)
COc1ccc(C(=O)Nc2ccncc2)cc1NC(=O)C(C)C [NU-565]	66%	55%
COc1ccc(C(=O)Nc2ccc(Cl)c(Cl)c2)cc1NC(=O)OC(C)C [NU-461]	124%	70%
COc1ccc(C(=O)Nc2ccc(Cl)c(Cl)c2)cc1NC(=O)CC1CCCC1 [NU-453]	169%	95%
COc1ccc(C(=O)Nc2ccc(Cl)c(Cl)c2)cc1NC(=O)C1CCOCC1 [NU-305]	121%	109%
COc1ccc(C(=O)N2CCc3ccccc3C2)cc1NC(=O)C(C)C [NU-570]	96%	87%
CCCCOc1ccc(C(=O)Nc2ccc(Cl)c(Cl)c2)cc1NC(=O)CC1CC1 [NU-615]	102%	105%
COc1ccc(C(=O)Nc2ccc(Cl)c(Cl)c2)cc1NC(=O)CC(C)C [NU-452]	140%	110%
COc1ccc(C(=O)Nc2ccc(OC)c(OC)c2)cc1NC(=O)C(C)C [NU-572]	98%	91%
COc1ccc(C(=O)NC2CCCCC2)cc1NC(=O)C(C)C [NU-573]	117%	80%
COc1ccc(C(=O)NCc2ccncc2)cc1NC(=O)C(C)C [NU-569]	98%	85%
CCC(C)C(=O)Nc1cc(C(=O)Nc2ccc(Cl)c(Cl)c2)ccc1OC (centres unmarked) [NU-456]	148%	113%
CCCCOc1ccc(C(=O)Nc2ccc(Cl)c(Cl)c2)cc1NC(=O)C1CCC1 [NU-614]	96%	99%
COc1ccc(C(=O)Nc2ccc(Cl)c(Cl)c2)cc1NC(=O)c1ccccc1 [NU-309]	100%	94%
COc1ccc(C(=O)Nc2ccc(Cl)c(Cl)c2)cc1NC(=O)c1ccncc1 [NU-306]	96%	84%
COc1ccc(C(=O)Nc2ccc(Cl)c(Cl)c2)cc1NC(=O)Cc1ccccc1 [NU-308]	92%	113%
COc1ccc(C(=O)Nc2ccc(Cl)c(Cl)c2)cc1NS(=O)(=O)C1CCC1 [NU-470]	100%	85%
